Results: patent US8841269B2, “Polynucleotides for use in treating and diagnosing cancers” (Creighton University, priority 2010, dated 2014)
Entries after “also recorded” stand apart in the source; their conditions may differ.

What was measured:
[1] = test system: MCF7 cells; assay: MTT cell proliferation assay in MCF7; type: cell-based, human; conditions: for cell growth (MTT) with E2: MCF7, E2 free medium with addition of 10 nmol/L E2; for cell growth (MTT): MCF7, E2 free medium with or without addition of 10 nmol/L E2 (FIG. 9B-D); for day from which significant effect on proliferation was detected / cell proliferation (MTT): MCF7, normal growth medium; for cell proliferation (MTT): 60 nmol/L
Procedure: MTT cell proliferation assay. MCF7 cells were transfected with let-7 mimics or negative controls (60 nmol/L) in normal growth medium for 1 day, or in medium with 2.5% charcoal-stripped FBS for 2 days to exhaust endogenous estrogen, following the protocol of siPORT NeoFX Transfection Agent (Applied Biosystems). For the experiment in normal growth medium, 10^4 cells in the volume of 100 μL were seeded in a 96-well plate for 12 hours and assay lasted for another 4 days. For experiments in E2 free medium, 1.5 10^4 cells were seeded in a 96-well plate for 12 hours and then exposed to 10 nmol/L E2, or not, for up to 4 days. For both experiments, each treatment had 12 replicates on the plate. The cells were then incubated in 0.83 mg/mL 3-[4,5-dimethylthiazol-2-yl]-2,5-diphenyltetrazolium bromide (MTT) in growth medium at 37° C. for 4 h and lysed in 100 μL of DMSO at room temperature for 15 min. The absorbance in each well was measured at 490 nm by an ELx800 Absorbance Microplate Reader (Biotek). Cell proliferation was normalized to day 0.

[2] = test system: pS2; assay: Immunoblot of pS2 after transfection in MCF7; type: cell-based, human; conditions: MCF7, mimics; for expression of pS2 (protein): after 2 days; for protein expression of pS2: after 6 days
From the text: Immunoblot analysis. For Western blot in FFPE tissues, an established method was followed (Addis et al., 2009, Proteomics 9:3815-23). For MCF7 cell line, let-7 mimics and negative control miRNA (60 nmol/L), or let-7 inhibitors and anti-miR negative control (60 nmol/L) were transfected following the protocol of siPORT NeoFX Transfection Agent (Applied Biosystems), The Western blot procedure was described before (Zhang et al., 2010, J Proteome Res., 9(2):980-989). Antibody information is as follows: ER-α, RB-9016-P1, Thermoscientific; Cyclin D1, sc-8396, Santa Cruz; pS2, ab80782 was Abeam; β-Actin, sc-69879, Santa Cruz.

[3] = test system: estrogen response element (ERE) construct; assay: ERE luciferase assay (2 ERE-tk-Luc), genomic estrogen pathway in MCF7; type: cell-based, human; conditions: for ERE luciferase activity: MCF7, p2 ERE-tk-Luc, 10 nmol/L E2 12 hours, p<0.01; for luciferase activity of the ERE construct: MCF7 cell line
Procedure: For checking on the genomic estrogen pathway, 10^5 MCF7 cells were first seeded into each well on a 24-well plate and cultured in IMEM with 2.5% charcoal-stripped FBS for 2 days. Then the cells were transfected as described above except that the estrogen response element (ERE) construct (2 ERE-tk-Luc; obtained from Katarine Pettersson, Karolinska Institute, Stockholm) replaced the pMIR-REPORT plasmid for 1 day. After stimulation with 10 nmol/L E2 for 12 hours, luciferase activity was measured as described above.

[4] = Real-time PCR of let-7 levels after mimic transfection (Example 2); type: cell-based, human
Procedure: To analyze mature let-7 miRNAs with real-time PCR, total RNA was isolated from the cell lines using mirVana miRNA isolation kit (Ambion Inc., Austin, Tex.) or from FFPE tissues using the miRNeasy FFPE Kit (Qiagen, Valencia, Calif.) following the manufacturer's instructions. We collected FFPE breast tissues from 13 benign, 16 ductal carcinomas in situ (DCIS), and 15 invasive ductal carcinomas (IDC), all of which were prepared as 50 μm thick sheets. The benign breast tissues were from surgical resections of abnormal breast lesions with non-neoplastic phenotypes such as calcification, fibrocystic changes or stromal fibrosis. cDNA was synthesized using 100 ng total RNA in a reaction volume of 15 μL and following the protocol of Taqman microRNA reverse transcription kit (Applied Biosystems, Foster City, Calif.). After 15 dilution, 9 μl, cDNA mixture was used for real-time PCR in 20 μL reaction volume, including 10 μL of TaqMan universal PCR master mix (no ampErase UNG) and 1 μL Taqman probe (Applied Biosystems, Foster City, Calif.). Real-time PCR was performed on 7900HT realtime PCR instrument (Applied Biosystems). PCR was initiated by two holds of 52° C. 2 min and 94° C. 10 min each, followed by 40 cycles of 15 s at 95° C. and 1 min at 60° C. The level of each miRNA was expressed following the 2^−ΔCt method using the small nuclear RNA RNU48 as the internal reference.
Let-7 miRNA or negative control #1 miRNA of 60 nmol/L (Ambion, Austin, Tex.) was transfected into cells with the siPORT NeoFX reagent (Ambion, Austin, Tex.) following the manufacturer's protocol.

[5] = test system: 3′ UTR of human ER-α36 gene; assay: Luciferase reporter assay, ER-α36 3′ UTR let-7 binding site in pMIR-REPORT; type: cell-based; conditions: MCF7 cells; for luciferase activity, ER-α36 3′-UTR binding site: 60 nmol/L mimics
From the text: A fragment of the 3′ UTR of human ER-α36 gene, which harbors the putative let-7 target sites, was synthesized (IDT, Coralville, Iowa). With the SpeI and HindIII restriction sites at the ends, respectively, the sense strand is 5′-ctag[…] (SEQ ID NO:41) and the antisense strand is 5′-agct[…] (SEQ ID NO:42). The sense and antisense oligonucleotides were annealed and ligated into the SpeI/HindIII sites of the pMIR-REPORT luciferase vector (Ambion, Austin, Tex.). The sequences were verified by DNA sequencing. Transfection was performed in 24-well plate using Lipofectamine 2000 (Invitrogen). Let-7 mimics, anti-let-7 inhibitors, or negative controls were transfected with 0.25 μg luciferase construct and 0.25 μg β-galactosidase plasmid (Ambion) to check transfection efficiency. Twenty-four hours post-transfection, the luciferase activity was measured using Dual-Glo Luciferase Assay System (Promega, Fitchburg, Wis.) in Veritas Microplate Luminometer (Turner Biosystems, Sunnyvale, Calif.).

[6] = MCF7-Tam, 6 days after transfection, vs negative control
[7] = MCF7-Tam, two days after transfection
[8] = MDA-MB-231, after 2 days, vs negative control cells

Substance | cell growth (MTT) with E2 [1] | cell growth (MTT) [1] | day from which significant effect on proliferation was detected [1] [days] | cell proliferation (MTT) [1] | expression of pS2 (protein) [2] | protein expression of pS2 [2] | ERE luciferase activity [3] | luciferase activity of the ERE construct [3] | increase of let-7 level after mimic transfection [4, 6] [fold] | increase of let-7 level after mimic transfection [4, 7] [fold] | increase of let-7 level after mimic transfection [4, 8] [fold] | luciferase activity, ER-α36 binding site [5] | luciferase activity, mutated ER-α36 binding sequence [5] | luciferase activity, ER-α36 3′-UTR binding site [5]
let-7i: let-7i miRNA (mimic), 3′-UUGUCGUGUUUGAUGAUGGAGU-5′ (SEQ ID NO:14) (chemistry not given here; listed 3' to 5') | consistent inhibition | strongly inhibited | 3 | significantly inhibited cell proliferation | significantly inhibited | significantly suppressed | about 60 % of negative control | inhibit the luciferase activity of the ERE construct | 100 | ~300 | ~200 | significantly inhibited the luciferase activity | abrogated the inhibitory effects; also recorded: did not show inhibition | about 60 % of the activity in the control cells
let-7b: let-7b miRNA (mimic), 3′-UUGGUGUGUUGGAUGAUGGAGU-5′ (SEQ ID NO:8) (chemistry not given here; listed 3' to 5') | consistent inhibition | strongly inhibited | 2 | significantly inhibited cell proliferation | significantly inhibited | significantly suppressed | about 40 % of negative control | inhibit the luciferase activity of the ERE construct | 100 | ~600 | ~400 | significantly inhibited the luciferase activity | abrogated the inhibitory effects; also recorded: did not show inhibition | about 60 % of the activity in the control cells
